Test system: A. fumigatus CEA10 reference strain
Assay: Fluconazole potentiator screen: MIC by CLSI microbroth dilution with and without fluconazole
Type: cell-based, Aspergillus fumigatus
Conditions: for MIC: Aspergillus fumigatus, read-out: MIC (ug/mL) (−) Fluc; for MIC / MIC (ug/mL) (+) Fluc: 18 h; for MIC (ug/mL) (+) Fluc: with 32 μg/ml fluconazole, normoxia, GMM, 37 °C; for potency / potentiation of fluconazole (in words): structure-activity statements, fluconazole potentiator screen

Structure (SMILES) | MIC | MIC (ug/mL) (+) Fluc | potency / potentiation of fluconazole (in words) | loss in potentiating the fluconazole (analogs of MBX-7591)
O=C(c1ccccc1)N1CCC(Cc2ccc(COc3ccncc3)cc2)CC1 [MBX-7704] | > 15 µg/mL | >15 µg/mL | – | –
O=S(=O)(c1ccc(C(F)(F)F)nc1)N1CCC(Cc2ccc(COc3ccncc3)cc2)C1 (centres unmarked) [MBX-8393] | > 47 µg/mL | >47 µg/mL | – | –
N=S(=O)(c1ccc(F)cc1)N1CCC(Cc2ccc(CN3CCOCC3)cc2)CC1 (centres unmarked) [MBX-8389] | > 43 µg/mL | >43 µg/mL | – | –
CN1CCN(S(=O)(=O)N2CCC3(CC2)CC(CCOc2ccncc2)CCO3)CC1 (centres unmarked) [MBX-7951] | > 87 µg/mL | >87 µg/mL | complete loss of activity | –
O=S(=O)(c1cncs1)N1CCC2(CC1)CC(CCOc1ccncc1)CCO2 (centres unmarked) [MBX-7959] | 21.2 µg/mL | 4.20 µg/mL | – | –
O=C(c1ccsc1)N1CCC(Cc2ccc(C#Cc3ccncc3)cc2)CC1 [MBX-7963] | > 77 µg/mL | >77 µg/mL | – | –
O=C(c1ccsc1)N1CCC(Cc2ccc(COc3cccnc3)cc2)CC1 [MBX-8065] | > 19 µg/mL | >19 µg/mL | complete loss of activity | –
O=C(NC1CCN(Cc2ccc(COc3ccncc3)cc2)CC1)c1ccsc1 [MBX-8312] | > 20 µg/mL | >20 µg/mL | – | –
COc1cccc(C(=O)N2CCC(Cc3ccc(COc4ccncc4)cc3)CC2)c1 [MBX-7771] | 11.8 µg/mL | 16.70 µg/mL | – | –
CC(C1CCN(Cc2ccc(CN3CCOCC3)cc2)CC1)S(=O)(=O)c1ccc(F)cc1 (centres unmarked) [MBX-8359] | > 23 µg/mL | >23 µg/mL | – | –
O=C(c1ccsc1)N1CCC(Cc2ccc(COc3ccc4scnc4c3)cc2)CC1 [MBX-8086] | > 19 µg/mL | >19 µg/mL | – | –
O=S(=O)(c1cccs1)N1CCC2(CC1)CC(CCN1CCOCC1)CCO2 (centres unmarked) [MBX-8245] | > 20 µg/mL | >20 µg/mL | – | –
O=S(=O)(c1ccc(Cl)s1)N1CCC2(CC1)CC(CCOc1ccncc1)CCO2 (centres unmarked) [MBX-7912] | 0.36 µg/mL | 0.18 µg/mL | the most potent | –
O=S(=O)(c1ccsc1)N1CCC2(CC1)CC(CCOc1ccncc1)CCO2 (centres unmarked) [MBX-7876] | > 12 µg/mL | 2.99 µg/mL | – | –
O=C(c1ccsc1)N1CCC(c2ccc(COc3ccncc3)cc2)CC1 [MBX-8066] | 1.2 µg/mL | 0.90 µg/mL | – | –
O=C1c2ccsc2CCN1Cc1ccc(COc2ccncc2)cc1 [MBX-8243] | 8.76 µg/mL | 4.92 µg/mL | – | –
O=C(c1ccccc1Cl)N1CCC(Cc2ccc(COc3ccncc3)cc2)CC1 [MBX-8091] | > 21 µg/mL | >21 µg/mL | – | –
O=S(=O)(C1CCC1)N1CCC2(CC1)CC(CCOc1ccncc1)CCO2 (centres unmarked) [MBX-7915] | 39.5 µg/mL | 49.70 µg/mL | complete loss of activity | –
O=C(c1ccsc1)N1CCC(Cc2ccc(COc3ccncn3)cc2)CC1 [MBX-8529] | 9.84 µg/mL | >15 µg/mL | – | –
O=C(O)c1ccc(C(=O)N2CCC(Cc3ccc(COc4ccncc4)cc3)CC2)cc1 [MBX-8138] | > 21 µg/mL | >21 µg/mL | – | –
O=C(c1cccc(F)c1)N1CCC(Cc2ccc(CN3CCOCC3)cc2)CC1 [MBX-8032] | 3.1 µg/mL | 8.80 µg/mL | – | –
O=S(=O)(c1ccc(F)cc1)N1CCC(Cc2ccc(COc3ccncc3)cc2)C1 (centres unmarked) [MBX-8391] | 1 µg/mL | 0.20 µg/mL | – | –
Nc1cc(OCc2ccc(CC3CCN(C(=O)c4ccsc4)CC3)cc2)ccn1 [MBX-8226] | 20 µg/mL | 11.00 µg/mL | – | –
O=C(c1cncs1)N1CCC(Cc2ccc(COc3ccncc3)cc2)CC1 [MBX-8098] | 5.5 µg/mL | 2.50 µg/mL | – | more than 4 fold

Reference: patent US20260373138A1, “COMPOUNDS WITH ANTIFUNGAL PROPERTIES” (priority 2023, published 2026)
